Test results published in ChEMBL document CHEMBL5360614, “Quinoline Thiourea-Based Zinc Ionophores with Antibacterial Activity” (J Med Chem, 2023).
Converted amounts (≈) assume the structure as drawn.

How the values were obtained:
Assay type in all cases: functional
Staphylococcus aureus [1] = experiment: Antibacterial activity against gentamicin-and methicillin-resistant Staphylococcus aureus ATCC 33592 assessed as reduction in bacterial growth incubated for 14 to 16 hrs by microbroth dilution method; conditions: time 14-16 hrs
Staphylococcus aureus [2] = experiment: (§1) Antibacterial activity against gentamicin-and methicillin-resistant Staphylococcus aureus ATCC 33592 assessed as reduction in bacterial growth incubated for 14 to 16 hrs in presence of 200 uM ZnCl2 by microbroth dilution method; conditions: time 14-16 hrs
Staphylococcus aureus [3] = experiment: as §1, with “1” for “200”, “1-(2-(1H-benzo[d]imidazol-1-yl)quinolin-8-yl)-3-(3,5-bis(trifluoromethyl)phenyl)thiourea” for “ZnCl2”; conditions: time 14-16 hrs
Staphylococcus aureus [4] = experiment: as §1, with “1 uM 1-(2-(1H-benzo[d]imidazol-1-yl)quinolin-8-yl)-3-(3,5-bis(trifluoromethyl)phenyl)thiourea and 100” for “200”; conditions: time 14-16 hrs
Staphylococcus aureus [5] = experiment: as §1, with “of 1 uM 1-(2-(1H-benzo[d]imidazol-1-yl)quinolin-8-yl)-3-(3,5-bis(trifluoromethyl)phenyl)thiourea and” for “of”; conditions: time 14-16 hrs
Staphylococcus aureus [6] = experiment: Potency index, ratio of compound MIC to compound MIC in presence of 1 uM 1-(2-(1H-benzo[d]imidazol-1-yl)quinolin-8-yl)-3-(3,5-bis(trifluoromethyl)phenyl)thiourea and 200 uM ZnCl2 for antibacterial activity against gentamicin-and methicillin-resistant Staphylococcus aureus ATCC 33592
Staphylococcus aureus [7] = experiment: Antibacterial activity against Staphylococcus aureus MTCC-96 assessed as reduction in bacterial growth incubated for 14 to 16 hrs by microbroth dilution method; conditions: time 14-16 hrs
Escherichia coli = experiment: Antibacterial activity against Escherichia coli MTCC 1687 assessed as reduction in bacterial growth incubated for 14 to 16 hrs by microbroth dilution method; conditions: time 14-16 hrs

Compound	MIC (Staphylococcus aureus [1]) [µM]	MIC (Staphylococcus aureus [2]) [µM]	MIC (Staphylococcus aureus [3]) [µM]	MIC (Staphylococcus aureus [4]) [µM]	MIC (Staphylococcus aureus [5]) [µM]	Ratio (Staphylococcus aureus [6])	MIC (Staphylococcus aureus [7]) [µM]	MIC (Escherichia coli) [µM]
CN(C)[C@@H]1C(O)=C(C(N)=O)C(=O)[C@@]2(O)C(O)=C3C(=O)c4c(O)cccc4[C@@](C)(O)[C@H]3C[C@@H]12 [TETRACYCLINE]	168 (≈ 74.7 µg/mL)	168	168	0.87	0.18	933		
O=C(Nc1cc(C(F)(F)F)cc(C(F)(F)F)c1)Nc1cccc2cccnc12	> 50						> 50	> 50
NC[C@H]1O[C@H](O[C@H]2[C@H](O)[C@@H](O[C@H]3O[C@H](CO)[C@@H](O)[C@H](N)[C@H]3O)[C@H](N)C[C@@H]2N)[C@H](O)[C@@H](O)[C@@H]1O [KANAMYCIN]	155 (≈ 75.1 µg/mL)	155	155	6.44	0.31	499		
[O-][n+]1ccccc1S [PYRITHIONE]							9.8 (≈ 1.25 µg/mL)	
CUPRIC CHLORIDE							1870	
FC(F)(F)c1cc(NC(=S)Nc2cccc3ccc(-n4cccc4)nc23)cc(C(F)(F)F)c1	> 50						> 50	> 50
CC(C)(O/N=C(\C(=O)N[C@@H]1C(=O)N2C(C(=O)[O-])=C(C[n+]3ccccc3)CS[C@H]12)c1csc(N)n1)C(=O)O [CEFTAZIDIME]	229 (≈ 125 µg/mL)	229	229	5.7	0.15	1524		
COc1ccc(NC(=S)Nc2cccc3cccnc23)cc1	> 50						> 25	> 50
FC(F)(F)c1cc(NC(=S)Nc2cccc3ccc(-n4ccc5ccccc54)nc23)cc(C(F)(F)F)c1	6.25 (≈ 3.32 µg/mL)						6.25 (≈ 3.32 µg/mL)	> 50
